Assays:
Integrin alpha-4/beta-1 = Integrin alpha-4/beta-1 (Homo sapiens, UniProt P05556+P13612); assay: Binding affinity towards VLA-4 (alpha4 beta-1) receptor in human Jurkat cells using [125I]VCAM-Ig as radioligand; type: cell-based
Integrin alpha-4/beta-7 = target: T1, Integrin alpha-4/beta-7 (Homo sapiens, UniProt P13612+P26010); assay: Binding affinity towards […] receptor in human RPMI-8866 B-cell line using [125I]MAdCAM-Ig as radioligand
T1 sequence (P13612 whole entry): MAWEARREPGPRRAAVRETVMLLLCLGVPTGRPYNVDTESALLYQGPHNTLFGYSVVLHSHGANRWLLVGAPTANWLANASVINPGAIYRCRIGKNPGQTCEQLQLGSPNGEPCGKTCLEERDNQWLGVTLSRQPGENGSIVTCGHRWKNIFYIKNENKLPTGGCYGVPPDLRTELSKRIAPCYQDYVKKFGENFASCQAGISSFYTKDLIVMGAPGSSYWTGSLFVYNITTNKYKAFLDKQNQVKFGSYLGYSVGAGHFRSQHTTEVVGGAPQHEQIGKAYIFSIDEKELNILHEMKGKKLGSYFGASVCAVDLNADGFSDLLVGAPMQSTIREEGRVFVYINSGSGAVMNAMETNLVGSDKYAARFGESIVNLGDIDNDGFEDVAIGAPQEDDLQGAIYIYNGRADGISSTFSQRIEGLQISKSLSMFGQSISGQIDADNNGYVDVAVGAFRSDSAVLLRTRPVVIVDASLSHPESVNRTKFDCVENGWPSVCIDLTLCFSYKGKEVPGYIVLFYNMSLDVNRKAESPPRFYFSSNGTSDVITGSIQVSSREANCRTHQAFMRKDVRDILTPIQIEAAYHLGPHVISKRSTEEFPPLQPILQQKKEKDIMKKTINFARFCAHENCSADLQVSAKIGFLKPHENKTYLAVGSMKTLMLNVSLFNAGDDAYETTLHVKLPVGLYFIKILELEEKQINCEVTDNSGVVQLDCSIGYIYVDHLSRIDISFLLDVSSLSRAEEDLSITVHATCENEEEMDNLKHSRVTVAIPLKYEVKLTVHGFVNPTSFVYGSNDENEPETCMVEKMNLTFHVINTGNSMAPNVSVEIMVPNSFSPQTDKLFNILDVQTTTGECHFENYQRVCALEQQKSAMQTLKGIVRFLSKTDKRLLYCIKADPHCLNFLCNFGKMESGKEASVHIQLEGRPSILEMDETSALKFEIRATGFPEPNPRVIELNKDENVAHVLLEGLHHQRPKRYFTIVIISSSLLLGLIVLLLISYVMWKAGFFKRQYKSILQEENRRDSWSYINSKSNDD
T1 sequence (P26010 whole entry): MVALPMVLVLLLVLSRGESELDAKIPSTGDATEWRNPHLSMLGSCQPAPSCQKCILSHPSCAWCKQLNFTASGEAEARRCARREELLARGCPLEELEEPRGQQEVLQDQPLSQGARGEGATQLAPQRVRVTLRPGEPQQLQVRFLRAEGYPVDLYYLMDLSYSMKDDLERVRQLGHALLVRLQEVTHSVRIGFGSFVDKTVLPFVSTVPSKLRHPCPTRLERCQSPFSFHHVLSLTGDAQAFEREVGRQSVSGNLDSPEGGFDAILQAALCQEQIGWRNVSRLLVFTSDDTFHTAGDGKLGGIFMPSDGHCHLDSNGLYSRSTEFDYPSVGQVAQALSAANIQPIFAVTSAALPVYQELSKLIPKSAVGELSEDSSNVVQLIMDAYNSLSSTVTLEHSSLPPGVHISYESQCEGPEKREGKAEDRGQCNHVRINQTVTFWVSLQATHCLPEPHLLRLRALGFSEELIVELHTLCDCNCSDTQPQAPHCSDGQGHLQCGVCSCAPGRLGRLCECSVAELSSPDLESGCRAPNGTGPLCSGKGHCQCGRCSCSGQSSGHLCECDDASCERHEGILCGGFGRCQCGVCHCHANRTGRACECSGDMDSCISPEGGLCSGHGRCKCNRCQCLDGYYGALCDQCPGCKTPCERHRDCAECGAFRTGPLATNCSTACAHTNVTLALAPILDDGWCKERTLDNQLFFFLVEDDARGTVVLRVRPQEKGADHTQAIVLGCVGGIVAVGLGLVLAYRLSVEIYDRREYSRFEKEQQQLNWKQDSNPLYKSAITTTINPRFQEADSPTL

[1] = target: Integrin alpha-4/beta-7 (Homo sapiens) (UniProt P13612+P26010); assay: Percent inhibition of [125I]VCAM-Ig binding to human integrin alpha4-beta7 receptor of RPMI-8866 cells at 100 nM; type: cell-based

Chain of Integrin alpha-4/beta-1 (P05556 whole entry, one chain of several): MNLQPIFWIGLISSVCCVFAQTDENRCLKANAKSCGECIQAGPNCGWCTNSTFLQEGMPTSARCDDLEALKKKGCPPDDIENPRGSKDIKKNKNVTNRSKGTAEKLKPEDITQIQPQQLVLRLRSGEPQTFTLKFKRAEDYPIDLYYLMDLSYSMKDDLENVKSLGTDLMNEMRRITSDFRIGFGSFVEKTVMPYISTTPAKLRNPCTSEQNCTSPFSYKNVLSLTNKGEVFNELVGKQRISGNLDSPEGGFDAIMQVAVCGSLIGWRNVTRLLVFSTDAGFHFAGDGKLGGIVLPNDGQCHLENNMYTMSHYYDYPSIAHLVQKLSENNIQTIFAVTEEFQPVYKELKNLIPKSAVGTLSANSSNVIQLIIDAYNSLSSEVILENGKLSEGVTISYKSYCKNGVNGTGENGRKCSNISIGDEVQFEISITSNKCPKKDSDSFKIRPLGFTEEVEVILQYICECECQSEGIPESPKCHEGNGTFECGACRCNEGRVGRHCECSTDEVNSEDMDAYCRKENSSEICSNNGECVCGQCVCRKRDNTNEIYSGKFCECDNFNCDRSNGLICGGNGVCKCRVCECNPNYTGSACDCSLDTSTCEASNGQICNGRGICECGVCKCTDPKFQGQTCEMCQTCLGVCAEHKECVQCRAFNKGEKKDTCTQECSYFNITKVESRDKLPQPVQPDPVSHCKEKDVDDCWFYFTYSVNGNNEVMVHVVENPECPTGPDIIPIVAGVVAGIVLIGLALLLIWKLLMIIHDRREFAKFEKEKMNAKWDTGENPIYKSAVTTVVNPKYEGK

IC50 (Integrin alpha-4/beta-1)	IC50 (Integrin alpha-4/beta-7)	inhibition [1]	Structure (SMILES)
56 nM	9220 nM	–	COc1ccccc1-c1ccc(C[C@H](NC(=O)C2(S(=O)(=O)c3ccccc3)CCN(C(C)(C)C)CC2)C(=O)O)cc1
28 nM	–	2%	Cc1ccc(S(=O)(=O)C2(C(=O)N[C@@H](Cc3ccc(-c4ccccc4)cc3)C(=O)O)CCCC2)cc1
0.77 nM	45 nM	–	COc1ccccc1-c1ccc(C[C@H](NC(=O)C2(S(=O)(=O)c3ccccc3)CCOC2)C(=O)O)cc1 (stereo partly specified)
65 nM	–	14%	O=C(O)[C@H](Cc1ccc(-c2ccccc2)cc1)NC(=O)C1(S(=O)(=O)Cc2ccccc2)CCCCC1
53 nM	–	0%	Cc1ccc(S(=O)(=O)C2(C(=O)N[C@@H](Cc3ccc(-c4ccccc4)cc3)C(=O)O)CCCCC2)cc1
0.36 nM	536 nM	–	COc1cccc(OC)c1-c1ccc(C[C@H](NC(=O)C2(S(=O)(=O)c3ccc(N4CCCC4)cc3)CCCNC2)C(=O)O)cc1 (stereo partly specified)
44 nM	–	19%	O=C(O)[C@H](Cc1ccc(-c2ccccc2)cc1)NC(=O)C1(S(=O)(=O)c2ccc(Br)cc2)CCCCC1
0.14 nM	46 nM	–	COc1cccc(OC)c1-c1ccc(C[C@H](NC(=O)C2(S(=O)(=O)c3cncn3C)CCCNC2)C(=O)O)cc1 (stereo partly specified)
0.37 nM	179 nM	–	COc1cccc(OC)c1-c1ccc(C[C@H](NC(=O)C2(S(=O)(=O)CCNCCCN(C)C)CCCNC2)C(=O)O)cc1 (stereo partly specified)
0.15 nM	96 nM	–	COc1cccc(OC)c1-c1ccc(C[C@H](NC(=O)C2(S(=O)(=O)c3ccccc3Br)CCCNC2)C(=O)O)cc1 (stereo partly specified)
1.2 nM	147 nM	–	COc1ccccc1-c1ccc(C[C@H](NC(=O)C2(S(=O)(=O)C3CCCC3)CCCC2)C(=O)O)cc1
14 nM	–	24%	O=C(O)[C@H](Cc1ccc(-c2ccccc2)cc1)NC(=O)C1(S(=O)(=O)C2CCCCC2)CCCCC1
680 nM	7340 nM	–	O=C(O)[C@H](Cc1ccc(-c2ccccc2)cc1)NC(=O)C1(S(=O)(=O)c2ccccc2)Cc2ccccc2C1
0.55 nM	150 nM	–	COc1ccccc1-c1ccc(C[C@H](NC(=O)C2(S(=O)(=O)c3ccccc3)CCOCC2)C(=O)O)cc1
31 nM	1230 nM	–	CCN1CCC(C(=O)N[C@@H](Cc2ccc(-c3ccccc3OC)cc2)C(=O)O)(S(=O)(=O)c2ccccc2)CC1
0.53 nM	58 nM	–	CCS(=O)(=O)C1(C(=O)N[C@@H](Cc2ccc(-c3ccccc3OC)cc2)C(=O)O)CCCC1
0.13 nM	83 nM	–	COc1cccc(OC)c1-c1ccc(C[C@H](NC(=O)C2(S(=O)(=O)c3cccc(Br)c3)CCCNC2)C(=O)O)cc1 (stereo partly specified)
23 nM	1260 nM	–	COc1ccccc1-c1ccc(C[C@H](NC(=O)C2(S(=O)(=O)c3ccccc3)CCN(c3ccccc3)CC2)C(=O)O)cc1
4.1 nM	128 nM	–	COc1ccccc1-c1ccc(C[C@H](NC(=O)C2(S(=O)(=O)c3ccccc3)CCSCC2)C(=O)O)cc1
0.48 nM	622 nM	–	COc1ccccc1-c1ccc(C[C@H](NC(=O)C2(S(=O)(=O)c3ccccc3)CCCNC2)C(=O)O)cc1 (stereo partly specified)
45 nM	–	13%	O=C(O)[C@H](Cc1ccc(-c2ccccc2)cc1)NC(=O)C1(S(=O)(=O)c2ccccc2Br)CCCCC1
0.19 nM	21 nM	–	COc1cccc(OC)c1-c1ccc(C[C@H](NC(=O)C2(S(C)(=O)=O)CCCNC2)C(=O)O)cc1 (stereo partly specified)
1.1 nM	466 nM	–	COc1cccc(OC)c1-c1ccc(C[C@H](NC(=O)C2(S(=O)(=O)c3ccccc3)CCN(C)CC2)C(=O)O)cc1

IC50 (Integrin alpha-4/beta-1)	IC50 (Integrin alpha-4/beta-7)	inhibition [1]	Structure (SMILES)
150 nM	–	–	CCCCCCCCS(=O)(=O)C1(C(=O)N[C@@H](Cc2ccc(-c3ccccc3)cc2)C(=O)O)CCCC1
0.1 nM	5.2 nM	–	COc1cccc(OC)c1-c1ccc(C[C@H](NC(=O)C2(S(=O)(=O)c3ccccc3)CCOC2)C(=O)O)cc1 (stereo partly specified)
6.6 nM	5790 nM	–	COc1ccccc1-c1ccc(C[C@H](NC(=O)C2(S(=O)(=O)c3ccccc3)CCCN(C)C2)C(=O)O)cc1 (stereo partly specified)
0.07 nM	5 nM	–	COc1cccc(OC)c1-c1ccc(C[C@H](NC(=O)C2(S(=O)(=O)c3ccc(F)cc3)CCCC2)C(=O)O)cc1
0.27 nM	40 nM	–	COc1ccccc1-c1ccc(C[C@H](NC(=O)C2(S(=O)(=O)c3ccc(F)cc3)CCCC2)C(=O)O)cc1
0.39 nM	388 nM	–	COc1cccc(OC)c1-c1ccc(C[C@H](NC(=O)C2(S(=O)(=O)c3ccccc3N3CCCC3)CCCNC2)C(=O)O)cc1 (stereo partly specified)
0.19 nM	94 nM	–	COc1cccc(OC)c1-c1ccc(C[C@H](NC(=O)C2(S(=O)(=O)c3ccc(Br)cc3)CCCNC2)C(=O)O)cc1 (stereo partly specified)
15 nM	521 nM	–	COc1ccccc1-c1ccc(C[C@H](NC(=O)C2(S(=O)(=O)Nc3ccccc3)CCCC2)C(=O)O)cc1
0.46 nM	97 nM	–	COc1cccc(OC)c1-c1ccc(C[C@H](NC(=O)C2(S(=O)(=O)c3cn(C)cn3)CCCNC2)C(=O)O)cc1 (stereo partly specified)
28 nM	–	18%	O=C(O)[C@H](Cc1ccc(-c2ccccc2)cc1)NC(=O)C1(S(=O)(=O)c2ccccc2)CCCC1
1.2 nM	16 nM	–	COc1ccccc1-c1ccc(C[C@H](NC(=O)C2(S(=O)(=O)c3ccccc3)CCC2)C(=O)O)cc1
0.19 nM	13 nM	–	COc1cccc(OC)c1-c1ccc(C[C@H](NC(=O)C2(S(=O)(=O)c3ccccc3)CCCCC2)C(=O)O)cc1
3 nM	2000 nM	–	COc1ccccc1-c1ccc(C[C@H](NC(=O)C2(S(=O)(=O)c3ccccc3)CCN(C)CC2)C(=O)O)cc1
0.11 nM	5 nM	–	COc1cccc(OC)c1-c1ccc(C[C@H](NC(=O)C2(S(=O)(=O)c3ccccc3)CCCC2)C(=O)O)cc1
51 nM	9180 nM	–	CCCCN1CCC(C(=O)N[C@@H](Cc2ccc(-c3ccccc3OC)cc2)C(=O)O)(S(=O)(=O)c2ccccc2)CC1
0.97 nM	54 nM	–	CCN(CC)S(=O)(=O)C1(C(=O)N[C@@H](Cc2ccc(-c3ccccc3OC)cc2)C(=O)O)CCCC1
0.17 nM	3.2 nM	–	COc1cccc(OC)c1-c1ccc(C[C@H](NC(=O)C2(S(=O)(=O)c3ccccc3)CCC2)C(=O)O)cc1
0.22 nM	5 nM	–	COc1cccc(OC)c1-c1ccc(C[C@H](NC(=O)C2(S(=O)(=O)c3ccccc3)CCSCC2)C(=O)O)cc1
20 nM	1900 nM	–	COc1ccccc1-c1ccc(C[C@H](NC(=O)C2(S(=O)(=O)c3ccccc3)CCNCC2)C(=O)O)cc1
0.77 nM	436 nM	–	COc1cccc(OC)c1-c1ccc(C[C@H](NC(=O)C2(S(=O)(=O)Cc3ccccc3)CCCNC2)C(=O)O)cc1 (stereo partly specified)
1.3 nM	70 nM	–	COc1ccccc1-c1ccc(C[C@H](NC(=O)C2(S(=O)(=O)c3ccccc3)CCS(=O)(=O)CC2)C(=O)O)cc1
4.4 nM	318 nM	–	COc1ccccc1-c1ccc(C[C@H](NC(=O)C2(S(=O)(=O)c3ccccc3)CC[S+]([O-])CC2)C(=O)O)cc1 (stereo partly specified)
0.67 nM	257 nM	–	COc1cccc(OC)c1-c1ccc(C[C@H](NC(=O)C2(S(=O)(=O)CCN3CCOCC3)CCCNC2)C(=O)O)cc1 (stereo partly specified)
